Measured values from ChEMBL document CHEMBL1201862, “PubChem BioAssay data set” (2004).
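In this assay, cells in 96-well plates receive the compound at five concentrations for 48 hours. Endpoints are linearly interpolated between the surrounding concentrations. At the GI50, growth is halved.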 Calls of active or inactive are those of the source. Rule as the data show it: active = GI50 up to about 1.1 µM and inactive = higher.

Assays:
Test in all cases: NCI-60 cell line screen, 48 h
786-0 = tested on: 786-0
SK-OV-3 = tested on: SK-OV-3
SF-539 = tested on: SF-539
UACC-62 = tested on: UACC-62
RXF 393 = tested on: RXF 393
SF-295 = tested on: SF-295
SK-MEL-5 = tested on: SK-MEL-5
Hs-578T = tested on: Hs-578T
MDA-MB-231 = tested on: MDA-MB-231
MCF7 = tested on: MCF7
PC-3 = tested on: PC-3
SR = tested on: SR
HCT-15 = tested on: HCT-15
NCI-H460 = tested on: NCI-H460
HOP-62 = tested on: HOP-62
KM12 = tested on: KM12
A549 = tested on: A549
T47D = tested on: T47D
RPMI-8226 = tested on: RPMI-8226
DLD-1 = tested on: DLD-1

Compound: NNC(=O)c1cc(Cl)ccc1NC(=O)C12CC3CC(CC(C3)C1)C2
- GI50 (786-0): 21.4 µM (inactive)
- GI50 (SK-OV-3): 28.7 µM (inactive)
- GI50 (SF-539): 42.1 µM (inactive)
- GI50 (UACC-62): 24.1 µM (inactive)
- GI50 (RXF 393): 37.8 µM (inactive)
- GI50 (SF-295): 39.5 µM (inactive)
- GI50 (SK-MEL-5): 25.9 µM (inactive)
- GI50 (Hs-578T): 31.8 µM (inactive)
- GI50 (MDA-MB-231): 51.2 µM (inactive)
- GI50 (MCF7): 27.2 µM (inactive)
- GI50 (PC-3): 35.3 µM (inactive)
- GI50 (SR): 14.4 µM (inactive)
- GI50 (HCT-15): 27.8 µM
- GI50 (NCI-H460): 30.9 µM (inactive)
- GI50 (HOP-62): 45.6 µM (inactive)
- GI50 (KM12): 30.1 µM (inactive)
- GI50 (A549): 20.2 µM (inactive)
- GI50 (T47D): 33 µM (inactive)
- GI50 (RPMI-8226): 24 µM (inactive)

Compound: Cc1nc([N+](=O)[O-])cn1-c1nc2ccccn2c1[N+](=O)[O-]
- GI50 (786-0): 61.7 µM (inactive)
- GI50 (SK-OV-3): 47.2 µM (inactive)
- GI50 (SF-539): 68.2 µM (inactive)
- GI50 (UACC-62): > 100 µM (inactive)
- GI50 (RXF 393): 17.7 µM (inactive)
- GI50 (SF-295): > 100 µM (inactive)
- GI50 (SK-MEL-5): 81.8 µM (inactive)
- GI50 (Hs-578T): > 100 µM (inactive)
- GI50 (MDA-MB-231): 56.4 µM (inactive)
- GI50 (MCF7): 95.3 µM (inactive)
- GI50 (PC-3): 38.4 µM (inactive)
- GI50 (SR): 42 µM (inactive)
- GI50 (HCT-15): > 100 µM
- GI50 (NCI-H460): 45.1 µM (inactive)
- GI50 (HOP-62): 55.1 µM (inactive)
- GI50 (KM12): 48.8 µM (inactive)
- GI50 (A549): > 100 µM (inactive)
- GI50 (T47D): 43.7 µM (inactive)
- GI50 (RPMI-8226): 64.1 µM (inactive)

Compound: c1ccc(/C(=N/Nc2nc3ccccc3s2)C2CCCCC2)nc1
- GI50 (786-0): 7.29 µM (inactive)
- GI50 (SK-OV-3): 4.67 µM (inactive)
- GI50 (SF-539): 13.8 µM (inactive)
- GI50 (UACC-62): 12.8 µM (inactive)
- GI50 (RXF 393): 11.7 µM (inactive)
- GI50 (SF-295): 15.8 µM (inactive)
- GI50 (SK-MEL-5): 6.24 µM (inactive)
- GI50 (Hs-578T): 19.6 µM (inactive)
- GI50 (MDA-MB-231): 11.3 µM (inactive)
- GI50 (MCF7): 1.23 µM (inactive)
- GI50 (PC-3): 6.11 µM (inactive)
- GI50 (SR): 3.88 µM (inactive)
- GI50 (HCT-15): 2.77 µM
- GI50 (NCI-H460): 7.83 µM (inactive)
- GI50 (HOP-62): 9.46 µM (inactive)
- GI50 (KM12): 10 µM (inactive)
- GI50 (A549): 16.9 µM (inactive)
- GI50 (T47D): 0.299 µM (active)
- GI50 (RPMI-8226): 3.94 µM (inactive)

Compound: COc1ccc(NC(=O)C(=O)Cc2nc3ccc([N+](=O)[O-])cc3nc2O)c(OC)c1
- GI50 (786-0): > 100 µM (inactive)
- GI50 (SK-OV-3): > 100 µM (inactive)
- GI50 (SF-539): > 100 µM (inactive)
- GI50 (UACC-62): > 100 µM (inactive)
- GI50 (RXF 393): > 100 µM (inactive)
- GI50 (SF-295): > 100 µM (inactive)
- GI50 (SK-MEL-5): > 100 µM (inactive)
- GI50 (HCT-15): > 100 µM
- GI50 (NCI-H460): > 100 µM (inactive)
- GI50 (KM12): > 100 µM (inactive)
- GI50 (A549): > 100 µM (inactive)
- GI50 (DLD-1): > 100 µM (inactive)

Compound: CCOC(=O)C(NC(=O)c1cccc(Cl)c1)(N1CCN(c2cc3c(cc2F)c(=O)c(C(=O)O)cn3CC)CC1)C(F)(F)F (configuration not stated)
- GI50 (786-0): 14.7 µM (inactive)
- GI50 (SK-OV-3): 23.9 µM (inactive)
- GI50 (SF-539): 15.2 µM (inactive)
- GI50 (UACC-62): 16.4 µM (inactive)
- GI50 (RXF 393): 18.2 µM (inactive)
- GI50 (SF-295): 18.7 µM (inactive)
- GI50 (SK-MEL-5): 14.2 µM (inactive)
- GI50 (Hs-578T): 15.6 µM (inactive)
- GI50 (MDA-MB-231): 15.8 µM (inactive)
- GI50 (MCF7): 13.8 µM (inactive)
- GI50 (PC-3): 13.4 µM (inactive)
- GI50 (SR): 17.1 µM (inactive)
- GI50 (HCT-15): 17.6 µM
- GI50 (NCI-H460): 22.3 µM (inactive)
- GI50 (HOP-62): 20.5 µM (inactive)
- GI50 (KM12): 11.7 µM (inactive)
- GI50 (A549): 18.7 µM (inactive)
- GI50 (T47D): 19.4 µM (inactive)
- GI50 (RPMI-8226): 10.9 µM (inactive)

Compound: OCCNC1c2cc(Cl)ccc2-c2c(Cl)cc(Cl)cc21 (configuration not stated)
- GI50 (786-0): 27.3 µM (inactive)
- GI50 (SK-OV-3): 42 µM (inactive)
- GI50 (SF-539): 47.9 µM (inactive)
- GI50 (UACC-62): 34 µM (inactive)
- GI50 (RXF 393): 40.2 µM (inactive)
- GI50 (SF-295): 35.6 µM (inactive)
- GI50 (SK-MEL-5): > 100 µM (inactive)
- GI50 (Hs-578T): 33.1 µM (inactive)
- GI50 (MDA-MB-231): 22 µM (inactive)
- GI50 (MCF7): 17.2 µM (inactive)
- GI50 (PC-3): 23.3 µM (inactive)
- GI50 (SR): 20.5 µM (inactive)
- GI50 (HCT-15): 33.7 µM
- GI50 (NCI-H460): 21.7 µM (inactive)
- GI50 (HOP-62): 41.2 µM (inactive)
- GI50 (KM12): 32.7 µM (inactive)
- GI50 (A549): 30 µM (inactive)
- GI50 (T47D): 36.1 µM (inactive)
- GI50 (RPMI-8226): 33.1 µM (inactive)
